Results on six compounds are retold here after paper PMC5383040, “Inhibition of prenylated KRAS in a lipid environment” (PLoS ONE, 2017).

SMILES strings stand for the structures. Where two headings read alike, the source gives them in different places.

Assay [1] addresses T1, 18-residue KRAS C-terminal prenylated peptide (Homo sapiens, UniProt P01116).
T1 construct: (biotin-[…](farnesyl)-OCH3) was obtained from AnaSpec (Fremont, California); purchased AnaSpec (Fremont, California); host or cells: synthetic peptide
Nature of the assay: BLI with KRAS C-terminal prenylated peptide in PS. Format: binding. On the procedure: Determination of Kds was performed on the Octet RED platform, according to the manufacturer's recommendations in their application note on small molecule analysis. The prenylated KRAS peptide containing the farnesyl group attached to the terminal cysteine (biotin-[…](farnesyl)-OCH3) was obtained from AnaSpec (Fremont, California). Proteins were obtained as described above. The assay buffer was 25mM Tris containing 190mM glycine, 5mM MgCl2, 0.01% Triton X-100, 1mM DTT and 1.3uM PS (liposome preparation as described above). The protein was attached to SuperStreptavidin biosensors (ForteBio 18–5057) via Avi-tagged-KRAS G12V:GTPγS with C-terminal prenylgroup by adding 2μL of the 5mg/mL solution of PS to 2mL of assay buffer, followed by the KRAS protein to a final concentration of 40nM. After incubation for 1h at RT, the protein was loaded into a 96-well plate (Greiner 655209), and loaded a BLI response of 3-4nm. […] Kds were determined using the ForteBio analysis software tool, which determines Kd from the steady-state plot, or from the determination of the kinetic constants kon and koff. […] After establishing reproducibility with compound 3, all other compounds were measured in singleton.

Assay [2] concerns the target T2, GTPγS-loaded, prenylated KRAS^G12V (Homo sapiens, UniProt P01116, G12V).
T2 construct: made in house; host or cells: insect cells (Sf9, Sf21 or Tn5), baculovirus
Kind of assay: Coupled KRAS-BRAF-MEK assay (BRAF activation by KRAS, AlphaScreen pMEK readout). The assay is classed as biochemical.

The test system of assay [3] is SW1990 cells. Kind of assay: Proliferation assay (CellTiter-Glo). The assay is classed as cell-based. The settings on record: Homo sapiens, 120 h, 5 days, read-out: Growth inhibition EC50. Here is the method:
Cells were seeded in 384-well plates and incubated with a 1:3 serial dilution of compound starting from 30 μM at 37°C with 5% CO2 for 5 days. Cell viability was measured using the CellTiter-Glo® Luminescent Cell Viability Assay kit (Promega) and read on an Envision (Perkin Elmer) plate reader. Percent growth inhibition was calculated by normalizing treatment to DMSO control. […] For every compound, each concentration was run in triplicate and all points were used for fitting a single curve.

Assay [4] has as its target T3, prenylated KRAS^G12V loaded with GTPγS (Homo sapiens, UniProt P01116, G12V).
T3 construct: Avi-tag-(Gly)8 –KRAS^G12V (2–188) was cloned into the pFastBac1 vector; made in house; host or cells: Tn5 insect cells, co-infected with BirA virus
Kind of assay: Biolayer interferometry (BLI) binding to full-length prenylated KRAS in PS. The settings on record: for binding in BLI studies: at 10 μM, full-length prenylated KRAS in PS.
Procedure: Determination of Kds was performed on the Octet RED platform, according to the manufacturer's recommendations in their application note on small molecule analysis. The prenylated KRAS peptide containing the farnesyl group attached to the terminal cysteine (biotin-[sequence](farnesyl)-OCH3) was obtained from AnaSpec (Fremont, California). […] After incubation for 1h at RT, the protein was loaded into a 96-well plate (Greiner 655209), and loaded a BLI response of 3-4nm. […] A reference sensor was run to remove systematic drift, and a second set of SuperStreptavidin biosensors blocked with biocytin was examined to remove systematic optical interferences, and to check for non-specific binding of compounds to the biosensor. Kds were determined using the ForteBio analysis software tool, which determines Kd from the steady-state plot, or from the determination of the kinetic constants kon and koff.

For assay [5], the system named is SW1990 cells (KRAS^G12D). Kind of assay: Western blot analysis of pAKT and pERK in SW1990. The assay is classed as cell-based, human. The settings on record: 3hrs treatment, dose-response. On the procedure: (§1) Cells were seeded in 6-well plates and treated with compounds or DMSO at the indicated concentrations for 3hrs. Total cell lysates were prepared in either M-PER (Pierce) or RIPA lysis buffer (50 mM Tris-HCl, pH 8.0, 150 mM NaCl, 0.5% NP-40, 0.5% sodium deoxycholate) supplemented with 1x protease inhibitor cocktail (Sigma) and 1x phosphatase inhibitor cocktails (Sigma). Lysates were normalized for protein concentration, resolved by SDS-PAGE, transferred onto nitrocellulose membranes and probed with the indicated antibodies.

The target of assay [6] is T4, full length BRAF^V600E (Homo sapiens, UniProt P15056, V600E).
T4 construct: made in house; host or cells: insect cells (Sf9, Sf21 or Tn5), baculovirus pBlueBac4.5
Kind of assay: BRAF^V600E counter-screen (coupled assay lacking KRAS). Format: biochemical. Here is the method:
An assay consisting of full length BRAF^V600E was used to flag inhibitors acting directly on BRAF, taking advantage of the constitutive activity of the BRAF mutant. […] The counter assay buffer, other components and order of addition matched the RAS-dependent assay except for the presence of KRAS. This assay was reproducible from run to run. […] After establishing reproducibility with this compound, all other compounds were measured with N≥2.

Assay [7] deals with A375 cells (BRAF^V600E). Kind of assay: Western blot analysis of pAKT and pERK in A375. Format: cell-based. The settings on record: 3hrs treatment. On the procedure: as §1
Assay [8] deals with T5, full-length KRAS (Homo sapiens, UniProt P01116, G12V).
T5 construct: Avi-tag-(Gly)8 –KRAS^G12V (2–188) was cloned into the pFastBac1 vector; made in house; host or cells: Tn5 insect cells, co-infected with BirA virus
Kind of assay: BLI control with full-length KRAS in the absence of PS. Format: binding. On the procedure: Determination of Kds was performed on the Octet RED platform, according to the manufacturer's recommendations in their application note on small molecule analysis. The prenylated KRAS peptide containing the farnesyl group attached to the terminal cysteine (biotin-[…](farnesyl)-OCH3) was obtained from AnaSpec (Fremont, California). Proteins were obtained as described above. […] The protein was attached to SuperStreptavidin biosensors (ForteBio 18–5057) via Avi-tagged-KRAS G12V:[…], followed by the KRAS protein to a final concentration of 40nM. After incubation for 1h at RT, the protein was loaded into a 96-well plate (Greiner 655209), and loaded a BLI response of 3-4nm. […] A reference sensor was run to remove systematic drift, and a second set of SuperStreptavidin biosensors blocked with biocytin was examined to remove systematic optical interferences, and to check for non-specific binding of compounds to the biosensor. Kds were determined using the ForteBio analysis software tool, which determines Kd from the steady-state plot, or from the determination of the kinetic constants kon and koff. […] After establishing reproducibility with compound 3, all other compounds were measured in singleton.

For assay [9], the target named is T6, KRAS construct 1–180 (Homo sapiens, UniProt P01116, G12V).
T6 construct: (His)6-TEV (N, cleaved yes); made in house; host or cells: E. coli BL21 (DE3), co-transformed with BirA
Kind of assay: BLI control with KRAS construct lacking the C-terminus. The assay is classed as binding. The settings on record: KRAS 1–180 lacking C-terminus and prenyl group, 10 μM compound.

In assay [10] the target is T7, non-prenylated GMPPNP-loaded KRAS^G12V (Homo sapiens, UniProt P01116, G12V).
T7 construct: HSQC experiments were run with ^15N-labeled and GDP-loaded K-RAS^G12V (1–169)
Nature of the assay: 31P-NMR conformational state of KRAS. The settings on record: KRAS^G12V 5 mg/ml; 1 mM compound 2 or 0.5 mM CRAF-RBD.
Procedure: (§2) The buffer contained 20mM Tris HCl, pH8.0, 50mM NaCl, 1mM MgCl2, 2mM DTT. […] 500 fragments from a fragment library [53] were screened by T1ρ ligand observation experiments, followed by protein-observed HSQC experiments. ^31P NMR spectra were acquired at 278°K on a Bruker AV400 spectrometer operating at 161.6 MHz ^31P frequency, equipped with a BBO probe.

For assay [11], the target named is T8, non-prenylated GDP-KRAS^G12V (Homo sapiens, UniProt P01116, G12V).
T8 construct: HSQC experiments were run with ^15N-labeled and GDP-loaded K-RAS^G12V (1–169)
Kind of assay: HSQC NMR binding / titration. The settings on record: non-processed GDP-loaded KRAS^G12V (1–169) in aqueous buffer, no PS; estimated from titration.
Procedure: as §2

Details of assay [12]: method as in PMID 22431598. The settings on record: cited from earlier work.
The target in assay [13] is truncated GDP-loaded KRAS. The settings on record: cited from earlier work.
[14] abbreviates: GTPγS-loaded full-length prenylated KRAS^G12V in PS, geomean, read-out: Coupled assay IC50.
Setting [15] is: full-length prenylated GTPγS-loaded KRAS^G12V, PS liposomes, read-out: Kd BLI.
Where [16] appears, read: BRAF^V600E, no KRAS, geomean, read-out: Counter-screen IC50.
[17] abbreviates: non-processed GDP-loaded KRAS in aqueous buffer, read-out: Kd HSQC.

T4 sequence (P15056 whole entry V600E): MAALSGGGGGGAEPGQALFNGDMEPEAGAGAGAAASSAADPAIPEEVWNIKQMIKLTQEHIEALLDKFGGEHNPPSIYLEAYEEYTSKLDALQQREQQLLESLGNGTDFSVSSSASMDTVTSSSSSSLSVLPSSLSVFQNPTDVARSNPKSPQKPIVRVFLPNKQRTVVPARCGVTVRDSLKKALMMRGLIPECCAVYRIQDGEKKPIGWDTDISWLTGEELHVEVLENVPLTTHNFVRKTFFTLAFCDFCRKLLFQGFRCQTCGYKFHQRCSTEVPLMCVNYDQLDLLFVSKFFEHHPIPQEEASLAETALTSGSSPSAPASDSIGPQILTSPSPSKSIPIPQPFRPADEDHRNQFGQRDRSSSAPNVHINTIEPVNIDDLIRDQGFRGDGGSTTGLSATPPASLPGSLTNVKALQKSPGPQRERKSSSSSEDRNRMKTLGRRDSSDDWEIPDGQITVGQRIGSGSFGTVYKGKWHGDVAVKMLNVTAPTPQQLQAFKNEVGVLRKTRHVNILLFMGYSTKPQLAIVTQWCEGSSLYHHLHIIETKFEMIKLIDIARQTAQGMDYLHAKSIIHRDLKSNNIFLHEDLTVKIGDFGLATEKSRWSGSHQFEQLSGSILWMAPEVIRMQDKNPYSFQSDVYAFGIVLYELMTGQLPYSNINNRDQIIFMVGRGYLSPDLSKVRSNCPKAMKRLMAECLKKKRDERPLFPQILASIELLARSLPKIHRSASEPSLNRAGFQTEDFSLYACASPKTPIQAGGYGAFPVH

With `O=C(N[C@H]1CCN(Cc2ccc(O)nc2)C1)c1c[nH]c2ccc(Cl)cc12` [Compound 4], the “binding to prenylated peptide in BLI” value in [1] was “did not bind”. Further, in [2], the “activity in the coupled assay” value was “negligible biochemical activity”. Besides, the figures for the 50% inhibitory concentration (IC50) in [2] (setting [14]) and in assay [6] (setting [16]) were 49 µM and 115 µM, respectively. For the same compound, the EC50 in assay [3] is above 30 µM. Besides, the “binding in BLI studies” value in [4] was “did not bind”. Besides, the Kd in assay [4] (setting [15]) is above 10 µM. In addition, in assay [5], the “effect on pAKT and pERK (cellular activity)” value (shortened to “effect on pAKT and pERK”) was “inactive at the concentrations tested”.
For `Clc1ccc(C[C@@H]2C[C@@H](NCc3c[nH]c4ccccc34)CCN2)cc1` [Compound 3], the “binding to prenylated peptide in BLI” value in assay [1] is given as “binds to the prenylated peptide in a concentration-dependent manner”. In addition, the IC50 in [2] (setting [14]) was 1.2 µM; in assay [6] (setting [16]), above 25 µM. Besides, the “effect on pAKT levels” value in assay [7] is recorded as “unexpected pattern of modulation”. Further, the EC50 in [3] came to 1.2 µM. Further, the “binding in BLI” value is given as “some binding was observed” in [8] (10 μM compound), “no binding was observed” in assay [8] (up to 3.3 μM compound) and “minimal binding was observed” in assay [9]. Besides, the Kd in assay [4] (setting [15]) was 2.6 ± 0.8 µM. Also, in [5], the “effect on pAKT and pERK” value is given as “dose-dependent decreases in phosphorylation of both of the pathway markers”. For the same compound, in assay [6], the “activity in the counter-screen” value was “minimal activity was observed”.
On to `O=C(N[C@H]1CCN[C@H](Cc2ccc(Cl)cc2)C1)c1c[nH]c2ccc(Br)cc12` [Compound 2], for which the values for the IC50 in [2] (setting [14]) and in assay [6] (setting [16]) were 0.8 ± 0.7 µM and 85 ± 47 µM, respectively. The “effect on pAKT levels” value in assay [7] is on record as “unexpected pattern of modulation”. Moreover, the “γ-phosphate population (conformational state) by 31P-NMR” value in [10] is “shift to a single inactive population”. In addition, the 50% effective concentration (EC50) in assay [3] was 2.7 ± 1.4 µM. Moreover, the “binding in BLI studies” value in assay [4] was “minor non-specific binding”. The equilibrium dissociation constant (Kd) in [4] (setting [15]) is 0.8 µM; in assay [11], 690 µM. The “effect on pAKT and pERK” value in assay [5] is given as “dose-dependent decreases in phosphorylation of both of the pathway markers”. Further, the “activity in the counter-screen” value in [6] is reported as “minimal activity was observed”.
For `Cc1[nH]c2cc(Cl)cc(Cl)c2c1CCN` [Compound 5, reference compound], the results for the IC50 in assay [2] and in [6] were 7 µM and 29 µM, respectively. Further, in [3], the half-maximal effective concentration (EC50) was found to be 18 µM. The Kd is 34 µM in [4]; 1000 µM in assay [13] (absence of a lipid environment, read-out: published Kd to truncated GDP-loaded KRAS); 1100 µM in assay [13] (setting [17]). Moreover, the “potency in cell-based assays” value in assay [12] is 16 µM. Also, in [5], the “effect on pAKT and pERK” value is “double-digit μM potency in cells”.
On to `CC(C)NCC(O)COc1cccc2cc[nH]c12` (centres unmarked) [Compound 1], for which the IC50 in assay [2] (setting [14]) is 87 ± 22 µM; in assay [6] (setting [16]), above 250 µM. In assay [3], the EC50 was above 30 µM. In assay [5], the “effect on pAKT and pERK” value was “inactive at the concentrations tested”.
Take `O=C(Nc1ccc2nc(Cc3c[nH]c4ccccc34)[nH]c2c1)C1CCCN1` (centres unmarked) [Compound 6, reference compound]: in [2], the “activity in the coupled assay” value is on record as “negligible activity”. Moreover, the EC50 in assay [3] was above 30 µM. Moreover, the Kd in assay [13] (setting [17]) was 340 µM. The “effect on pAKT and pERK” value in assay [5] was “inactive in cells”. In addition, the “activity in the counter-screen” value in assay [6] is “negligible activity”. The IC50 in assay [6] (setting [16]) is 134 µM.
